According to patent publication US10889611B2, “Sialyltransferase inhibitors and uses thereof” (Academia Sinica, priority 2015, dated 2021):
Marks after values point to notes of the source that are not given here.

Key:
[1] = molecular target: T1, α2,3(N)-sialyltransferase ST3GALIII (Rattus norvegicus, UniProt Q02734); test: Sialyltransferase activity assay, ST3GALIII; type: biochemical; settings: calculated based on the concentration, of ST inhibitor used toward α2,3-O-ST3GALI
T1 construct: purchased Calbiochem
T1 sequence (Q02734 1-374): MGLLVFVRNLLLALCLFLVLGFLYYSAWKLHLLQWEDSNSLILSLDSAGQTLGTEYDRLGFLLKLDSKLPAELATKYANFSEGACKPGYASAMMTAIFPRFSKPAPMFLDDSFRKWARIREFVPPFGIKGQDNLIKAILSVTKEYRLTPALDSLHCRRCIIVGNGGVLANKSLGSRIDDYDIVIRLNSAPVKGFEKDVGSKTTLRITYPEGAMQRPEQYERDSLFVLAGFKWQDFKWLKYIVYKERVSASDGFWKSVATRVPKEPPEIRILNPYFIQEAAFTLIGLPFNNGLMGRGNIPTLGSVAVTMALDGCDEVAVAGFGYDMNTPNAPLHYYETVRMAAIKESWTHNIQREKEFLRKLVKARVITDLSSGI
Procedure: (§1) The enzymes analyzed in the present study included rat ST3Gal(I), rat ST3Gal(III), and human ST6Gal(I). Rat ST3Gal(I) and rat ST3Gal(Ill), were purchased from Calbiochem®, while human ST6Gal(I) was purchased from RnDSystems.com.
(§2) Sialyltransferase inhibition assay […] was performed as follows: Sialyltransferase activity was determined by measuring the level of the end product of sialylated saccharides with reverse-phase HPLC. The assay mixtures contained the following components: 200 mM MES buffer; 100 mM NaCl; 0.5 mM EDTA; 0.01% Triton X-100; 1.4 mU ST3GALI; 2.5 mM T-antigen; 1 mM CMP-Neu5Ac and different concentration of Sialyltransferase inhibitors to a total volume of 50 μl. The assay mixture was incubated at 37° C. for 15 mins and then quenched by heating up to 101′C for 10 mins. The sialylated product was resolved by reversed-phase HPLC. Kinetic data were obtained by fitting the initial rate data to the nonlinear regression equation.
as §2, with “mU ST6GALI; 25 μM Galβ1-4GlcNAc;” for “mU ST3GALI; 2.5 mM T-antigen;”, “to 101° C.” for “to 101′C”, “product is” for “product was”, “resolved with” for “resolved by”
(§3) Effects of the present compounds on the activity of sialyltransferase, including α2,3(N)-sialyltransferase ST3GALIII, α2,6(N)-sialyltransferases ST6GALI, and α2,3(O)-sialyltransferase ST3GALI, were determined in accordance with procedures described in the “Materials and Methods” section, and results are summarized in Table 1.

[2] = molecular target: T2, α2,6(N)-sialyltransferases ST6GALI (Homo sapiens, UniProt P15907); test: Sialyltransferase inhibition assay, ST6GALI (reverse-phase HPLC); type: biochemical; settings: for IC50: IC50 (μM) ST6GALI, α2,6-N-link
T2 construct: purchased RnDSystems.com (R&D Systems)
T2 sequence (P15907 1-406): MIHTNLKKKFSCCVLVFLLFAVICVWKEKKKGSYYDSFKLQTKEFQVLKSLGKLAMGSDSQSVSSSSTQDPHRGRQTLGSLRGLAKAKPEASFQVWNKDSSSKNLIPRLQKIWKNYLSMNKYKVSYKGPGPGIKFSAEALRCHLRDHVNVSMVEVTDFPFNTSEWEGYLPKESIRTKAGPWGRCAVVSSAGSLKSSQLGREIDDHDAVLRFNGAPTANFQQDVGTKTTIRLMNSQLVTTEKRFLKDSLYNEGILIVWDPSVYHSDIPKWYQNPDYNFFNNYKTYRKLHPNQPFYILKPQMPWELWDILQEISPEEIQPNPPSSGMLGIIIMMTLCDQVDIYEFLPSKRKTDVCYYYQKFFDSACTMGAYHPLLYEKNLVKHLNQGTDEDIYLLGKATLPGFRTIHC
Procedure: as §1
as §2, with “mU ST6GALI; 25 μM Galβ1-4GlcNAc;” for “mU ST3GALI; 2.5 mM T-antigen;”, “to 101° C.” for “to 101′C”, “product is” for “product was”, “resolved with” for “resolved by”
as §3

[3] = molecular target: T3, α2,3(O)-sialyltransferase ST3GALI (Rattus norvegicus, UniProt Q6H8N0); test: Sialyltransferase inhibition assay, ST3GALI (reverse-phase HPLC); type: biochemical; settings: read-out: ST3GALI inhibition percentage; for inhibition at 500 µM: measured at 500 μM
T3 construct: purchased Calbiochem
T3 sequence (Q6H8N0 1-340): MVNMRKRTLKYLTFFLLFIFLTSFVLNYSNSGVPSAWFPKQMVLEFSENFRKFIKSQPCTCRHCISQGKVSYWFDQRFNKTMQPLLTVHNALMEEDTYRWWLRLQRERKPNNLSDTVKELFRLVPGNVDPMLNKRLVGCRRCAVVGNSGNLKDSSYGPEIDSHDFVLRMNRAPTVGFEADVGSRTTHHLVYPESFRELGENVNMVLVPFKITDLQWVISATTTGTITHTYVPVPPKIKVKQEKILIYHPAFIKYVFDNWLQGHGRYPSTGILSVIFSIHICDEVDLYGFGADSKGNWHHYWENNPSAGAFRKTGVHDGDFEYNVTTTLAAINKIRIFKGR
Procedure: as §1, §2, §3

[4] = molecular target: T1, α2,3(N)-sialyltransferase ST3GALIII; test: Sialyltransferase activity assay, ST3GALIII; type: biochemical; settings: IC50 (μM) ST3GALIII, α2,3-N-link
MDA-MB-231 cells = test: Transwell migration assay, breast cancer cells; type: cell-based, human
From the text: Migration assays were done using a transwell, in which a polycarbonate filter pre-coated with Matrigel (8-μm pores, Millicell; Millipore, Billerica, Mass.) was inserted therein. […] Cells that had migrated to the underside of the inserted filter were stained with hematoxylin solution. The cells in the upper side of the inserted membrane were rubbed with a cotton swab. The migrated cells on the underside were pictured in a 200× magnification field and quantified.

[5] = test system: primary melanoma cells (B16-F10/Luc cells); test: Primary melanoma-bearing C57BL mice; type: in vivo
Procedure: (§4) Six C57BL mice (3-6 weeks old) were subcutaneously or intravenously injected with 5×10^5 primary melanoma cells (i.e., B16-F10/Luc cells) on day 0 and allowed the tumor to grow for 7 days to create primary or metastatic melanoma model. Then, the test compound (e.g., FCW393, 10 mg/Kg, i.p.) was administered by intraperitoneal injection at the interval of 3 times per week, until day 26 in each animal model. Tumor sizes were measured using calipers at designated days, and tumor volume was calculated using the formula: volume=width^2×length×0.52. The average body weight (BW) of the animals was measured daily, and the concentration of the test compound(s) (i.e., FCW393) in i.p. injection was adjusted proportionally to the BW respectively at the indicated dosage and time. After treatment, mice were sacrified and their white blood cells (WBC), red blood cells (RBC), platelets (PLT), hemoglobin (HGB), hematocrit (HCT), mean corpuscular volume (MCV), mean corpuscular hemoglobin (MCH), and mean corpuscular hemoglobin concentration (MCHC) were respectively determined; their weights of lymph nodes, thymus, and spleen were measured; as well as the levels of aspartate aminotransferase (AST), analine aminotransferase (ALT), albumin, triglyceride, blood urea nitrogen (BUN), creatinine, and uric acid were measured.
In this example, effects of FCW393 (or compound 16) on animals implanted with primary melanoma cells were investigated, in which the body weight; the size of the tumor; the respective weights of lymph nodes, thymus, and spleen; the respective functions of liver, kidney, and vascular system; as well as the levels of inflammation and/or stress markers were determined. Results are illustrated in FIGS. 8-15.

[6] = test system: metastatic melanoma (B16-F10/Luc cells); test: Metastatic melanoma-bearing C57BL mice; type: in vivo
Procedure: as §4

C[C@H](CCC(=O)OCCOCCOCCOCCOCCN=[N+]=[N-])C1CC[C@H]2[C@@H]3CC[C@@H]4C[C@H](OC(=O)[C@H](CC(=O)O)Nc5ccc([N+](=O)[O-])c6nonc56)CC[C@]4(C)[C@H]3CC[C@]12C (stereo partly drawn) [Compound 5, (3S)-4-(((3R,5R,8R,9S,10S,13R,14S)-17-((R)-1-azido-16-oxo-3,6,9,12,15-pentaoxaicosan-19-yl)-10,13-dimethylhexadecahydro-1H-cyclopenta[a]phenanthren-3-yl)oxy)-3-((7-nitrobenzo[c][1,2,5]oxadiazol-4-yl)amino)-4-oxobutanoic acid]
selectivity ratio ST3GALI/ST3GALIII ([1]; 500 μM): >516^d | selectivity ratio ST3GALI/ST6GALI [2]: >99 | IC50 [2]: 5.03 ± 0.2 µM | inhibition at 500 µM [3]: 0% | IC50 [4]: 0.97 ± 0.14 µM

C[C@H](CCC(=O)OCCOCCOCCOCCN=[N+]=[N-])C1CC[C@H]2[C@@H]3CC[C@@H]4C[C@H](OC(=O)[C@H](CC(=O)O)Nc5ccc([N+](=O)[O-])c6nonc56)CC[C@]4(C)[C@H]3CC[C@]12C (stereo partly drawn) [Compound 4, (3S)-4-(((3R,5R,8R,9S,10S,13R,14S)-17-((R)-1-azido-13-oxo-3,6,9,12-tetraoxaheptadecan-6-yl)-10,13-dimethylhexadecahydro-1H-cyclopenta[a]phenanthren-3-yl)oxy)-3-((7-nitrobenzo[c][1,2,5]oxadiazol-4-yl)amino)-4-oxobutanoic acid]
selectivity ratio ST3GALI/ST3GALIII ([1]; 500 μM, listed as 4 (FCW66)): >495^d | selectivity ratio ST3GALI/ST3GALIII ([1]; 1 mM, listed as 4 (FCW66)): (≤990)^e | selectivity ratio ST3GALI/ST6GALI [2]: >102 | IC50 [2]: 4.9 ± 0.08 µM | inhibition at 500 µM [3]: 0% | inhibition at 1000 µM ([3]; measured at 1 mM): 50% | migration of MDA-MD-231 cells (MDA-MB-231 cells; 20 μM, FIG. 1): inhibited the migration | IC50 (MDA-MB-231 cells; Homo sapiens, MDA-MB-231, breast cancer cells treated with 2-30 μM, transwell, 16 hours, read-out: IC50 on migration): 12 ± 0.13 µM | IC50 [4]: 1.01 ± 0.07 µM

C[C@H](CCC(=O)OCCOCCOCCN=[N+]=[N-])C1CCC2C3CC[C@@H]4C[C@H](NC(=O)[C@H](CC(=O)O)Nc5ccc([N+](=O)[O-])c6nonc56)CC[C@]4(C)C3CC[C@@]21C (stereo partly drawn) [Compound 16, (3S)-4-(((3R,5R,10S,13R)-17-((R)-5-(2-(2-(2-azidoethoxy)ethoxy)ethoxy)-5-oxopentan-2-yl)-10,13-dimethylhexadecahydro-1H-cyclopenta[a]phenanthren-3-yl)amino)-3-((7-nitrobenzo[c][1,2,5]oxadiazol-4-yl)amino)-4-oxobutanoic acid]
body weights of the test animals ([5]; 10 mg/Kg, i.p.): without significantly affecting | tumor volume as compared with that of the control animal ([5]; 10 mg/Kg, i.p., 3 times per week): about 1/3 | weight of lymph node, thymus, or spleen ([5]; FIG. 9): no effects | counts of white blood cells (WBC), increase ([5]; FIG. 10, panel A): 2 fold | levels of RBC, PLT, HGB, HCT, MCV, MCH and MCHC ([5]; FIG. 10, panels B to H): no effects | level of analine aminotransferase (ALT) ([5]; FIG. 11): did not affect | level of aspartate aminotransferase (AST) ([5]; FIG. 11): reduce | level of inflammation marker (albumin) ([5]; FIG. 11, panel C): no effect | level of the stress marker (uric acid) ([5]; FIG. 11, panel G): slightly increased | weight of lymph node, thymus, or spleen ([6]; FIG. 13): did not affect | levels of WBC, RBC, platelets, HGB, HCT, MCV, MCH, and MCHC ([6]; FIG. 14): nor did it possess any significant effects | level of inflammation marker or stress marker ([6]; FIG. 15): did not affect | growth of tumor (bioluminescence IVIS images) ([6]; days 7 and 14, FIG. 12, panels A and B): suppress the growth of tumor | melting point: 80 to 81 °C
